Results published in US20210038577A1, “THIOREDOXIN REDUCTASE INHIBITORS FOR USE IN THE TREATMENT OF CANCER” (Cinda Pharma AB, priority 2018, published 2021).

Legend:
[1] = test system: NB-4 (a leukaemia cell line); experiment: MTT cell viability assay, NB-4; format: cell-based; conditions: 72 hrs
Description: (§1) MDA-MB-453 (ATCC HTB-131) cells were grown in media with sodium pyruvate. MDA-MB-231 cells (ATCC HTB-26) were grown in DMEM media or L-15 supplemented with Glutamax (1×). U87-MG (ATCC HTB-14) and MDA-MB-468 (ATCC HTB-132) cells were cultured in DMEM supplemented with Glutamax (1×). NB-4 (DSMZ ACC-207) cells were cultured in RPMI 1640.
(§2) Breast cancer and glioblastoma cell lines were plated 4000 cells/well in 96-well plates in the presence of 10% FBS media. The following day cells were treated with various concentrations of the example compounds (0.1% DMSO final) and incubated for 72 hrs. After the incubation an MTT assay was performed to access cell viability. Percent of viability was determined using DMSO vehicle and no cell (blank) controls.

4T1 tumors = experiment: Intratumoral immune cell populations in engrafted 4T1 tumors in BALB/c mice (FACS); format: in vivo; conditions: 1 mg/kg intratumorally bid for 5 days, day 6
Description: Intratumoral immune cell populations within engrafted 4T1 cells in BALB/c mice. 4T1 cells are a murine mammary carcinoma cell line. BALB/c mice are immunocompetent. 1×10^6 4T1 tumor cells in 0% Matrigel were implanted orthotopically into the mammary fat pad. Enrollment of the mice into the treatment arms commenced when the tumors reached an average volume between 175-200 mm^3. […] Tumor volumes were measured using a digital caliper on day 1, 3, and 6 of the study. On day 6 mice were euthanized and tumors were resected for FACs analysis. Populations of murine immune cells including CD45+, CD4+, CD8+, and Tregs were analyzed. CD45+ positive cells were analyzed as the percentage of live cells. CD4+, CD8+, and Tregs cells were analyzed as percentage of CD45+ positive cells.

recombinant TrxR = molecular target: T1, recombinant TrxR (Rattus norvegicus, UniProt O89049); experiment: Sec-independent SecTRAP activity (Juglone assay); conditions: for Juglone Act (% @ 100% DTNB inhibition): compound at the concentration that achieves 100% inhibition of TrxR in the DTNB assay
T1 sequence (O89049 1-499): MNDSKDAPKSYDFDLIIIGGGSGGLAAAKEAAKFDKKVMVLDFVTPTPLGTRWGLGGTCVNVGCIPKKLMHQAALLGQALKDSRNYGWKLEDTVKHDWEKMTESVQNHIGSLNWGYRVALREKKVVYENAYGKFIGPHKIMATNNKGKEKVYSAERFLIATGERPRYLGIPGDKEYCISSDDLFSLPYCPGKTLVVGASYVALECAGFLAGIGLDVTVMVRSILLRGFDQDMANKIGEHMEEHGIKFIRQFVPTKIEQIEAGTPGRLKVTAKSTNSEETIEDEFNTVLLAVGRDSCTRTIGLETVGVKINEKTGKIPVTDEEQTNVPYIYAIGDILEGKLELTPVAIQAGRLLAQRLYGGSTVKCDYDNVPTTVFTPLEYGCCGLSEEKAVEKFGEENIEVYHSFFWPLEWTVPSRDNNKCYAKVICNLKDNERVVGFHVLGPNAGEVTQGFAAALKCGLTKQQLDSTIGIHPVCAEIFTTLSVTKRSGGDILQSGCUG
Description: SecTRAP forming capabilities of compounds with TrxR was determined using the Juglone Assay. Compounds were incubated in the presence of recombinant TrxR and 250 μM NADPH for 15 minutes at concentrations fully inhibiting enzyme activity in the DTNB assay. 100 μM juglone was then added to each well and NADPH consumption was followed at OD340 to determine sustained reductive capacity at the N-terminus of TrxR (SecTRAP Activity). Activity was determined following the consumption of NADPH over time and normalized to DMSO only (Vehicle) and TrxR lacking (blank) controls.
Aliquots were used in a DTNB assay to determine inhibition of enzyme activity. […] Incubation samples were then added to a reaction buffer containing 250 μM NADPH and 100 μM juglone, whereupon NADPH consumption was followed at OD340 to determine sustained SecTRAP activity.
Higher % values for juglone activity (juglone reduction activity) in this assay are indicative of stronger prooxidant activity.

[2] = test system: MDA-MB-231 (a breast cancer cell line); experiment: MTT cell viability assay, MDA-MB-231; format: cell-based, human
Description: as §1, §2

[3] = test system: MDA-MB-468 (a breast cancer cell line); experiment: MTT cell viability assay, MDA-MB-468; format: cell-based; conditions: Homo sapiens, MDA-MB-468, 72 hrs
Description: as §1, §2

[4] = test system: U-87 MG (a glioblastoma cell line); experiment: MTT cell viability assay, U-87 MG; format: cell-based; conditions: Homo sapiens, U-87 MG, 72 hrs
Description: as §1, §2

MDA-MB-231 cells = experiment: Alamar-Blue cell viability assay; format: cell-based, human; conditions: Homo sapiens, MDA-MB-231, 72 hrs
Description: MDA-MB-231 cells were plated 2000 cells/well in 96-well black optical plates in the presence of 10% FBS media containing 25 nM selenite. The following day cells were treated with various concentrations of compounds (0.1% DMSO final) and incubated for 72 hrs. After the incubation Alamar Blue reagent was added to each well and incubated for additional 3 hrs. Fluorescence was read ex:530 nm/em:590 nm, and percent of viability was determined using DMSO vehicle and no cell (blank) controls.

CCCCCCCCS(=O)(=O)c1nc(OC)ccc1[N+](=O)[O-] [OT-1096, 6-methoxy-3-nitro-2-(octylsulfonyl)pyridine]
IC50 [1]: 3.22 µM
CD8+ levels in tumors relative to no treatment controls (4T1 tumors): significantly increased
ratio of CD8+ cells to Treg cells in tumours (4T1 tumors): increases
Juglone Act (% @ 100% DTNB inhibition) (recombinant TrxR): 86.96%

CCS(=O)(=O)c1nc(OC)ccc1[N+](=O)[O-] [OT-1129, 2-(ethylsulfonyl)-6-methoxy-3-nitropyridine]
IC50 ([2]; 72 hrs): 4.88 µM
IC50 [1]: 1.12 µM
Juglone Act (% @ 100% DTNB inhibition) (recombinant TrxR): 74.83%

NC(=O)c1ccc(I)c([N+](=O)[O-])c1 [Iniparib, 4-Iodo-3-nitrobenzamide, reference compound]
IC50 [3]: > 33 µM
IC50 ([2]; Homo sapiens, MDA-MB-231, 72 h): > 33 µM
IC50 [4]: > 33 µM
IC50 (MDA-MB-231 cells): 54.4 µM
IC50 [1]: 57.6 µM
CD8+ levels in tumors relative to no treatment controls (4T1 tumors): significantly increased
ratio of CD8+ cells to Treg cells in tumours (4T1 tumors): increases
classification as SecTRAP forming agent (recombinant TrxR; DTNB assay inhibited, juglone activity retained): SecTRAP forming compound
N-terminal juglone reduction activity (recombinant TrxR; Iniparib at 1 mM compared with OT-1000 at 1 μM (FIG. 1B)): retained at a similar level to that obtained for OT-1000

COc1ccc([N+](=O)[O-])c(S(=O)(=O)c2ccc(Cl)cc2)n1 [OT-1000, 2-((4-Chlorophenyl)sulfonyl)-6-methoxy-3-nitropyridine]
IC50 [3]: 9.21 µM
IC50 ([2]; Homo sapiens, MDA-MB-231, 72 h): 3.14 µM
IC50 [4]: 12.7 µM
IC50 (MDA-MB-231 cells): 3.53 µM
IC50 [1]: 1.2 µM
